Measurements from patent US20240043531A1, “ANTI-CD47 MONOCLONAL ANTIBODY AND USE THEREOF” (Akeso Biopharma, Inc., priority 2021, published 2024).

Assays:
[1] = tested on: human ovarian cancer SK-OV-3 cells; test: Immune cell activation: PBMCs with Raji-PDL1 and SK-OV-3 cells, cytokine ELISA; assay type: cell-based; conditions: SEB-activated PBMCs + Raji-PDL1 + SK-OV-3 cells, 3 days; FIG. 5
[2] = tested on: human lung adenocarcinoma A549 cells; test: Immune cell activation: PBMCs with Raji-PDL1 and A549 cells, cytokine ELISA; assay type: cell-based; conditions: SEB-activated PBMCs + Raji-PDL1 + A549 cells, 3 days; FIG. 4
[3] = tested on: human prostate cancer LNCAP cells; test: Immune cell activation: PBMCs with Raji-PDL1 and LNCAP cells, cytokine ELISA; assay type: cell-based; conditions: SEB-activated PBMCs + Raji-PDL1 + LNCAP cells, 3 days; FIG. 6
[4] = tested on: acute myelocytic leukemia (AML) HL-60 cells; test: ADCP: phagocytosis of HL-60 cells by HPMMs, combination with azacitidine; assay type: cell-based, human; conditions: HPMMs effector, HL-60 target cells treated with azacitidine 3 μM or 1 μM for 24 h; antibodies 10 μg/mL and 1 μg/mL; FIG. 2
Text: (§1) Materials: Azacitidine (purchased from Baxter Oncology GmbH); Hu5F9-G4 (supplied by Akeso Biopharma, Inc.); Raji cells (Chinese Academy of Sciences Shanghai Branch); HL-60 cells (ATCC); RPMI 1640 (Gibco, Cat. No: 22400-105); pancreatin (0.25% Typsin-EDTA (1×)) (Gibco, Cat. No: 25200072); fetal bovine serum (FBS; Excell bio, Cat. No: FSP500); fluorescent dye […] diacetatesuccinimidyl ester (CFSE; Biolegend, Cat. No: 423801); recombinant human macrophage colony-stimulating factor (human M-CSF; PeproTech, Cat. No: 300-25); APC anti-human CD11c antibody (Biolegend, Cat. No: 301614); isotype control (human IgG4; supplied by Akeso Biopharma, Inc.); rituximab (Roche); BSA (Sigma, Cat. No: V900933-1KG); Ficoll paque plus (GE, Cat. No: 17-1440-02). Human peripheral monocyte-derived macrophages (HPMMs) were prepared by inducing PBMCs. Frozen PBMCs were conventionally thawed and incubated in an incubator overnight. […]
Procedures: HL-60 cells were conventionally collected and plated in a 6-well plate at 4×10^5 cells/2 mL of 1640 complete medium per well. […] The next day, the treated and blank HL-60 cells were collected, centrifuged at 170×g for 5 min, resuspended and counted. Then the cells were analyzed for viability and washed once with PBS. […]

[5] = tested on: Burkitt's lymphoma Raji cells; test: ADCP: phagocytosis of Raji cells by HPMMs, combination with rituximab; assay type: cell-based, human; conditions: HPMMs effector, Raji target cells, 37° C. 2 h, flow cytometry; FIG. 1
Text: as §1, with “overnight. The next day, PBMCs were collected, centrifuged at 170×g for 5 min, resuspended in a 1640 medium containing 2% FBS, and incubated in an incubator for 2 h.” for “overnight.”
Procedures: Raji cells in the logarithmic phase were conventionally collected, centrifuged at 170×g for 5 min, resuspended and then washed once with PBS. […] 200 μL of 1% PBSA was added to each tube for resuspension, and the cells were detected on an FACS Calibur flow cytometer. […]

[6] = target: T1, CD47 IgV TEV-His (human CD47 mature peptide of positions 19-141 of NP_942088.1, TEV, his tag fusion protein) (human, UniProt Q08722 19-141); test: indirect ELISA screening with CD47 IgV TEV-His as antigen
T1 construct: range 19-141; Synthesized by Akeso Biopharma; not shown: his tag
Text: Spleen cells of immunized mice were fused with myeloma cells of the mice to prepare hybridoma cells.

[7] = target: T2, CD47 IgV TEV-His / human SIRPαECD-hFc-Biotin (Homo sapiens, UniProt Q08722); test: Competitive ELISA against receptor SIRPα ECD-hFc-Biotin for binding to CD47
T2 construct: human CD47 mature peptide of positions 19-141 of GenbankID: NP 942088.1; His tag (C); host or cells: mammalian cell expression system (said in general terms, for CD47 only)
Text: (§2) The antigen used for preparing the anti-CD47 antibody with the hybridoma cell line 6F7 was CD47 IgV TEV-His (including human CD47 mature peptide of positions 19-141 of GenbankID: NP 942088.1 and TEV (amino acid sequence: ENLYFQG, SEQ ID NO: 74)-his tag fusion protein, synthesized by Akeso Biopharma, Inc.) and 3T3-CD47 cells (NIH/3T3, manufacturer: ATCC, Cat. No: CRL-1658; the human CD47 mature peptide was transfected into the cells on the basis of NIH/3T3 to construct a cell line stably expressing 3T3-CD47). Spleen cells of immunized mice were fused with myeloma cells of the mice to prepare hybridoma cells. […] The hybridoma cells obtained by ELISA screening were screened by competitive ELISA to obtain a hybridoma cell line capable of secreting a monoclonal antibody capable of competing for binding to CD47 IgV TEV-His with the receptor human SIRPαECD-hFc-Biotin (SIRPαECD refers to the extracellular region of SIRPα, positions 31-373 of protein GenBank ACCESSION No. NP_542970.1; hFc refers to a human IgG Fc purification label, specifically to Ig gamma-1 chain C region, positions 114-330 of GenbankID: P01857), which was then subjected to dilution cloning to obtain a stable hybridoma cell line. The hybridoma cell line was designated hybridoma cell line LT012, and the monoclonal antibody secreted by the cell line was designated 6F7.

[8] = target: T3, CD47 IgV TEV-His (Homo sapiens, UniProt Q08722); test: Indirect ELISA screening for antibodies specifically binding CD47; conditions: monoclonal antibody secreted by hybridoma LT012
T3 construct: human CD47 mature peptide of positions 19-141 of GenbankID: NP 942088.1; His tag (C); host or cells: mammalian cell expression system (said in general terms)
Text: as §2

## penpulimab: anti-PD-1 antibody; heavy chain SEQ ID NO: 82, light chain SEQ ID NO: 84 [reference compound]
[1]
  secretion of IL-2 by PBMC cells: can significantly stimulate the secretion of IL-2
[2]
  secretion of IFN-γ by PBMC cells: can significantly stimulate the secretion of IFN-γ
[3]
  secretion of IL-2 by PBMC cells: can significantly stimulate the secretion of IL-2

## Nc1ncn([C@@H]2O[C@H](CO)[C@@H](O)[C@H]2O)c(=O)n1 [azacitidine]
[4]
  phagocytic index (ADCP): significantly higher than those of the blank control and the isotype control (human IgG4)

## rituximab: anti-human CD20 antibody (Roche) [reference compound]
[5]
  phagocytic index (ADCP): significantly higher than those of the blank control and the isotype control (human IgG4)

B1: anti-CD47 monoclonal antibody 6F7 (secreted by hybridoma cell line LT012) (antibody, V domains shown)
VH: QVQLQQPGAELVRPGASVKLSCKASGYTFTSYWMNWVKQRPGQGLEWIGMIDPSDSETHNNQMFKDKATLTVDKSSNTAYMHLSSLTSEDSAVYHCARLYRWYFDVWGAGTTVTVSS
VL: NIVMTQSPKSMSMSLGERVTLSCKASEIVGTYVSWFQQKPHQSPKLLIYGASNRYTGVPDRFTGSGSATDFTLTISNVQAEDLADYHCGQSYNFPYTFGGGTKLEIK
notes: Murine hybridoma antibody; also called CD47-6F7; LT012 antibody
[6]
  binding result: binds

B2: 6F7: murine anti-CD47 monoclonal antibody secreted by hybridoma LT012; VH SEQ ID NO: 2, VL SEQ ID NO: 4 (antibody, V domains shown)
VH: QVQLQQPGAELVRPGASVKLSCKASGYTFTSYWMNWVKQRPGQGLEWIGMIDPSDSETHNNQMFKDKATLTVDKSSNTAYMHLSSLTSEDSAVYHCARLYRWYFDVWGAGTTVTVSS
VL: NIVMTQSPKSMSMSLGERVTLSCKASEIVGTYVSWFQQKPHQSPKLLIYGASNRYTGVPDRFTGSGSATDFTLTISNVQAEDLADYHCGQSYNFPYTFGGGTKLEIK
modifications: Synthetic artificial sequence-Amino acid sequence of the heavy chain variable region of 6F7; Synthetic artificial sequence-Amino acid sequence of the variable region of the light chain of 6F7
[7]
  competition with SIRPα ECD-hFc-Biotin for binding to CD47: can compete with the receptor SIRPα ECD-hFc-Biotin for binding to CD47
[8]
  specific binding to CD47: capable of specifically binding to CD47
